Test results from patent US7041276B2, “Methods of screening agents for activity using teleosts” (priority 1998, dated 2006).
“Also recorded” adds a separate entry of the source.

Experiments:
zebrafish embryo = assay: First screening experiments for anti-angiogenic effects (compound added to fish culture media); assay type: in vivo; conditions: for other effects / complications in the embryo / effect on blood vessel formation: added to the fish culture media; for effect on blood vessel formation: AP staining day three; for diffusion into the zebrafish embryo: after addition to the media
Description: On the third day of development, embryos were collected for alkaline phosphatase staining. Specifically, embryos were fixed in 4% paraformaldehyde and stained for endogenous alkaline phosphatase activity. Embryos were fixed for 2 hours at room temperature. The embryos were then washed two times in phosphate buffered saline (PBS) and dehydrated by immersion in 25%, 50%, 75% and 100% methanol in phosphate buffered saline with 0.1% Tween (PBT) to permeabilize the embryos. The embryos were then rehydrated and washed in 100% PBT. For staining, embryos were equilibrated in NTMT buffer (0.1M Tris-HCl pH 9.5; 50 mM MgCl; 0.1M NaCl; 0.1% Tween 20) at room temperature. After the embryos equilibrated, embryos were stained by adding 4.5 μl of 75 mg/ml nitro blue tetrazolium (NBT) and 3.5 μL of 50 mg/ml X-phosphate per ml. After staining for 10 minutes, all the blood vessels in the fish embryo were labeled (see FIGS. 2A–2C, 3A–3B, 4, 7). The staining reaction was stopped by addition of PBST. Embryos were then examined on a stereo-dissecting microscope. One advantage of using the zebrafish for this type of assay is that the subintestinal vessels, which are located over the yolk, are both sensitive to factors which effect vessel formation and easily assayed by this method (see, e.g., FIG. 7). The subintestinal vessels are normally present on the dorsolateral surface of the yolk of zebrafish embryos by 48 hours of development. They form a distinct basket shape that extends 50–100 μm from the ventral edge of the somite over the yolk. By assaying the subintestinal vessels at 72 hours of development (24 hours after the subintestinal vessels normally appear), normal variation in the timing of the vessel formation was avoided. The staining procedure is easily automated using commercially available instrumentation.
In our first set of screening experiments for anti-angiogenic effects, we examined the effect of fumagillin, a natural anti-angiogenesis chemical, on blood vessel formation in the zebrafish embryo. The compound was administered by addition to the fish culture media. […] Using the screening parameters described above, we identified two compounds that caused apparently specific anti-angiogenic effects. In addition, we identified 16 other compounds that caused a reduction of angiogenic vessel formation in addition to other effects.

zebrafish embryos [1] = assay: Five-day zebrafish toxicity testing; assay type: in vivo
Description: Fertilized zebrafish embryos were obtained by natural spawning in our aquaculture facility. To reduce variations between batches, randomized samples of embryos from 3 or 4 independent matings were used. The test medium was prepared by combining 5 g of Instant Ocean Salt with 3 g of CaSO4 in 25 liters of distilled water, according to Westerfield, supra. The embryos were maintained in the test medium throughout the experiments. Embryos at 24 hours of development (with chorion) were exposed continuously for five days to chemical compounds at different concentrations of the chemical compounds and controls. In general, the concentrations ranged from 100 nanomolar (nM) to 100 micromolar (μM). Tests were repeated four times for each series of dilutions, and a standard deviation was calculated for each treatment (see “Statistical Methods” section). Ten embryos per concentration were exposed in a total volume of 1 ml (constant ratio of 100 μl/embryo) using a 24 multi-well plate. (Other sizes of multi-well plates, such as 96-well plates can also be used to facilitate screening.) The compounds were renewed daily. In all cases, 0.1% of dimethyl sulfoxide (DMSO) was used as a carrier solvent during the treatment. Controls with and without 0.1% DMSO were performed in all experiments. This approach has long been used to introduce anesthetics and other chemicals into fish embryos (Westerfield, supra).
Experiments were carried out at a constant temperature (28–28.5° C.) in the dark to protect the compounds from decomposition due to light exposure. Dead embryos were removed daily, counted, and used to calculate the Median Lethal Concentration (LC50, see “Statistical Methods” section herein). Each day, surviving embryos were analyzed visually under a dissecting binocular microscope (Zeiss, amplification 30–50×). Macroscopic malformations (such as axial defects, embryolethality, growth inhibition, general malformations, including microcephaly, macrocephaly, tail truncation, tail malformation, loss of axial structures, such as somites, etc.) were observed, classified, and counted to assess whole animal toxicity. Compounds that were lethal or induced these or any noted malformations or disruptions during development (e.g., during the first 5 days of development) were further examined for toxic effects on organs. The embryonic developmental stage that is affected by the toxic compound can be determined. Organ toxicity can be assessed in surviving embryos using in situ hybridization, enzymatic assays, and immunochemistry procedures.
Toxic activity in the kidney (Pronephros) can be assessed visually by colorimetric staining of the kidney of the treated whole animal (e.g., zebrafish). Zebrafish pronephros express high levels of the enzyme alkaline phosphatase that can be easily assayed using a chromogenic dye. To stain kidneys in zebrafish embryos, embryos were fixed with 2% paraformaldehyde overnight at 4° C. and then treated with methanol 100% for 30 minutes at room temperature. […]
For the concentrations tested with aspirin and dexamethasone in these studies, there was no partial lethality and the geometric mean of the parameters “no mortality” (0%) and “mortality” (100%) of the effect concentration was taken as the LC50 and binomial confidence limits were calculated according to Stephan, “Methods for Calculating LD50” in Aquatic Toxicology and Hazard Evaluation (F. L. Mayce and J. L. Hamelink eds.) ASTM STP 634, pp. 65–84. […]

mice and rats = conditions: TOXNET Web Search and other sources; cited from earlier work
zebrafish embryos [2] = assay: Microinjection of proteins into 24 hour embryos, effect on vessel formation; assay type: in vivo
Description: To examine the effects of proteins and protein fragments (and peptides and peptide fragments) on angiogenesis in teleost embryos, proteins (and protein fragments and peptide fragments) were directly injected into the circulation of 24 hour zebrafish embryos. Embryos were collected and dechorionated as described above. The embryos were then sorted into holding ramps made of 1% agarose in embryo water and oriented with the yolk ball projecting up. Microinjection injection was performed as follows: the proteins were suspended in PBS and backfilled into a pulled glass micropipet. The micropipet was then attached to a micromanipulator and a picospritzer (General Valve) attached to a nitrogen tank. Using the micromanipulator, the tip of the micropipet was inserted into the embryo and a small volume of protein solution was expelled from the tip using positive pressure. To determine if our animal model could be used effectively to screen for these compounds, we performed a series of experiments in which we injected one of two different proteins having opposing effects on vessel formation—human endostatin (O'Reilly et al., Cell 88(2):277–285 (1997)) and human vascular endothelial growth factor (VEGF)—into an embryo. Endostatin, a collagen XVIII fragment, is an endogenous protein with potent anti-angiogenic activity. […] In preliminary experiments, we injected VEGF protein either into the yolk ball or into the perivitelline space between the yolk and the periderm. Because the second location is in the path of the venous return, proteins end up in the circulation of the embryo. To backfill the injection pipettes, we used a 2 mg/ml solution of VEGF. […] This is consistent with observations in other vertebrates. Drake et al., Proc. Natl. Acad. Sci. USA 92(17):7657–7661 (1995); Fouquet et al., supra. Endostatin was injected into the zebrafish as was VEGF.

zebrafish embryos [3] = assay: Rescue of induced cell death activity; assay type: in vivo; conditions: for opacity at two hours after the addition of 100 μM Ibuprofen / opaque cells at one hour after 100 μM Ibuprofen: yolk injection of 25 μM Caspase 3 inhibitor or PBS at 24 hours; for opaque cells at one hour after 100 μM Ibuprofen: Ibuprofen at 26 hours
Description: To determine if the teleost model could be used to screen for compounds which blocked or reduced cell death activity, embryos were microinjected with a Caspase 3 inhibitor (Calbiochem #264155) prior to exposure to Ibuprofen.
Specifically, embryos at 24 hours of development were dechorionated and microinjected with either 25 μM Caspase 3 inhibitor or PBS into the yolk. At 26 hours of development, embryos were exposed to 100 μM Ibuprofen by addition to the media.

zebrafish embryos [4] = assay: Fluorescent detection of cell death in live zebrafish embryos; assay type: in vivo; conditions: 100 μM
Description: As an additional test of our cell death detection method, we also examined the ability of the dye to label cells in embryos treated with Ibuprofen, a cyclooxygenase inhibitor, which causes a characteristic pattern of cell death. This pattern consists of a posterior to anterior progression of dying cells as indicated by a progression of opacity changes in the cells of the embryo.
Embryos as 24 hours of development were pretreated for 1 hour with a 100 nanomolar concentration of the fluorescent dye (e.g., benzothiazolium-4-quinolium dye) in embryo media. The embryos were then exposed to 100 μM of Ibuprofen by addition to the media and examined by light and epifluorescence microscopy every 15 minutes for 2 hours. Control embryos were pretreated with the same concentration of dye, but were not exposed to the Ibuprofen. […] This pattern of fluorescently labeled cells was identical to the pattern observed for the opacity changes in the embryo.

[5] = 2 mg/ml solution, 24 hour embryos, AP staining at 72 hours
[6] = 24 hour embryos pretreated with dye

Ovicillin
other effects / complications in the embryo (zebrafish embryo): pericardial edema | effect on blood vessel formation (zebrafish embryo): reduction in the subintestinal vessels | diffusion into the zebrafish embryo (zebrafish embryo): capable of diffusing into the zebrafish embryo

CC(=O)Oc1ccccc1C(=O)O [Aspirin]
Zebrafish LD50 (zebrafish embryos [1]; embryos exposed continuously for five days from 24 hours of development): 101 mg/L | Zebrafish specific toxicity observed (zebrafish embryos [1]; five-day exposure): teratogen,; also recorded: kidney,; also recorded: muscle; also recorded: erratic | Mammalian models specific toxicity (from the literature) (mice and rats): kidney,; also recorded: ureter,; also recorded: cardio-; also recorded: cranio-; also recorded: musculo-

endostatin
effect on vessel formation after injection (zebrafish embryos [2]; injected into the zebrafish as was VEGF): inconsistent and thus uninterpretable

VEGF
angiogenic phenotypes after injection into the yolk (zebrafish embryos [2]; [5]): the appearance of long spikes projecting from the subintestinal vessel basket; also recorded: increased vessel diameters in the subintestinal basket | effect after injection into the perivitelline space (zebrafish embryos [2]; [5]): disruption of vessel formation; also recorded: fusion of large vessels, inappropriate vessel formation

COC(=O)CC[C@H](NC(=O)[C@H](CC(=O)OC)NC(=O)OCc1ccccc1)C(=O)N[C@H](C(=O)N[C@@H](CC(=O)OC)C(=O)CF)C(C)C [Caspase 3 inhibitor]
survival by 24 hours after the introduction of 100 μM Ibuprofen (zebrafish embryos [3]; yolk injection of 25 μM Caspase 3 inhibitor): all of the experimental embryos were dead | opacity at two hours after the addition of 100 μM Ibuprofen (zebrafish embryos [3]): still transparent | opaque cells at one hour after 100 μM Ibuprofen (zebrafish embryos [3]): not in embryos injected with the Caspase inhibitor

CC(C)Cc1ccc(C(C)C(=O)O)cc1 (centres unmarked) [Ibuprofen]
fluorescently labeled (dead or dying) cells within 1 hour (zebrafish embryos [4]; 24 hour embryos pretreated with 100 nanomolar dye): fluorescently labeled cells were detected in the posterior tip of the tail | fluorescently labeled cells at 1 hour and 30 minutes (zebrafish embryos [4]; [6]): labeled cells were detected in a large patch, extended from the tip of the tail to the level of the anus | fluorescently labeled cells by two hours (zebrafish embryos [4]; [6]): fluorescently labeled cells could be seen throughout the embryo | opacity at two hours after the addition of 100 μM Ibuprofen (zebrafish embryos [3]): completely opaque | opaque cells at one hour after 100 μM Ibuprofen (zebrafish embryos [3]): opaque cells were observed

CO[C@@H]1[C@H](OC(=O)/C=C/C=C/C=C/C=C/C(=O)O)CC[C@]2(CO2)[C@H]1[C@@]1(C)O[C@@H]1CC=C(C)C [fumagillin]
other effects / complications in the embryo (zebrafish embryo): pericardial edema, developmental delay, and axial defects | effect on blood vessel formation (zebrafish embryo): reduction in angiogenesis | diffusion into the zebrafish embryo (zebrafish embryo): capable of diffusing into the zebrafish embryo
